What was measured:
[1] = system: metastatic pancreatic cancer; test: Phase I trial (CEND-001) of CEND-1 with gemcitabine and nab-paclitaxel: response and survival; assay type: in vivo, human
Description: (§1) Patients will first receive the intravenous infusion of nabpaclitaxel (125 mg/m^2 over 30 minutes (±3 minutes)).
(§2) Patients (n=31) who had measurable metastatic pancreatic cancer, no prior treatments for metastatic disease and an ECOG PS of 0 to 1 were included. Primary endpoints are safety and optimal biologic dose, secondary and exploratory endpoints included response rates, pharmacokinetics and biomarkers.

CA19-9 = test: Phase I trial (CEND-001): tumor biomarker CA19-9; assay type: in vivo, human; conditions: with nab-paclitaxel and gemcitabine
Description: as §1, §2
Of these, 23 patients had at least one on-treatment CA19-9 measurement.

[2] = with nab-paclitaxel and gemcitabine
[3] = with nab-paclitaxel and gemcitabine, RECIST 1.1, 29 evaluable patients
[4] = patients with elevated baseline CA19-9 and a postbaseline assessment (23)

## Ac-Cys-Arg-Gly-Asp-Lys-Gly-Pro-Asp-Cys-NH2 (Cys & Cys Bridge) [CEND-1]
[1]; with nab-paclitaxel 125 mg/m^2 and gemcitabine 1000 mg/m^2, investigator assessed RECIST 1.1, 29 evaluable patients
  Complete response: 3.4%
[1]; [2]
  Median time to progression: approximately 9.7 months
  Response rates relative to the benchmark trials: > 2 times
[1]; with nab-paclitaxel and gemcitabine, 16/29 patients
  Patients with progression: 55.2%
[1]; with nab-paclitaxel and gemcitabine, 17/29 patients (95% CI=38.9, 76.5)
  Confirmed objective responses (OR): 58.6%
[1]; [3]
  Partial response: 55%
  Progressive disease: 6.9%
  Stable disease: 34%
[1]; with nab-paclitaxel and gemcitabine, all evaluable patients (N=29)
  Overall response rate (ORR): 59%
[1]; with nab-paclitaxel and gemcitabine, at study closure
  Median (IQR) PFS: 9.7 months
[1]; with nab-paclitaxel and gemcitabine, evaluable patients (N=29)
  Overall disease control rate for 16 weeks: 79%
CA19-9; Cycle 5 Day 1, 20/22 patients
  Patients with a ≥50% reduction in CA19-9 from Baseline: 90.9%
CA19-9; [4]
  Patients with CA19-9 decrease from baseline of at least 20%: 96%
  Patients with CA19-9 decrease of at least 90% and/or CA19-9 levels normalized: 74%
